From ChEMBL document CHEMBL4420067, “Inhibitors of alpha-amino-beta-carboxymuconic acid semialdehyde decarboxylase” (2018)

target: 2-amino-3-carboxymuconate-6-semialdehyde decarboxylase (Homo sapiens, UniProt Q8TDX5); assay: Inhibition of human recombinant ACMSD1 expressed in Escherichia coli BL21 (DE3) cells assessed as reduction in conversion of 3-OH-anthranilic acid into ACMS by spectrophotometry
Sequence (Q8TDX5 whole entry): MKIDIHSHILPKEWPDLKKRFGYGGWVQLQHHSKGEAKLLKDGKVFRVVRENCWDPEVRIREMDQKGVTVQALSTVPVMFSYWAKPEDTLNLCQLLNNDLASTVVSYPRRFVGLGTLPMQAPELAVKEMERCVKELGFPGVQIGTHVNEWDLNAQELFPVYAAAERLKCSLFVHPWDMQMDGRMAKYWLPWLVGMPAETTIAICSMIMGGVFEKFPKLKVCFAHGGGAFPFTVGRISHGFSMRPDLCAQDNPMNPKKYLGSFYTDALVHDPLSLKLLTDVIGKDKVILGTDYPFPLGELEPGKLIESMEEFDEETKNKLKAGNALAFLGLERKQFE

IC50, > 100 nM:
N#Cc1c(/C=C/c2ccccc2-c2cc(F)c(O)c(F)c2)[nH]c(=S)[nH]c1=O
COc1cccc(/C=C/c2[nH]c(=O)[nH]c(=O)c2[N+](=O)[O-])c1OCC(=O)O
CCOc1cccc(/C=C/c2[nH]c(=S)[nH]c(=O)c2C#N)c1OCC(=O)O
N#Cc1c(/C=C/c2cccc(O)c2O)[nH]c(=S)[nH]c1=O
COc1cccc(/C=C/c2[nH]c(=S)[nH]c(=O)c2C#N)c1OCC(=O)O
